Laboratory results reported in PubChem BioAssay (NCI).
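Cells were grown in 96-well plates and exposed to each compound for 48 hours at five concentrations; endpoints were interpolated linearly between bracketing concentrations, or set to the highest concentration if not reached. The concentration for full growth arrest is given as TGI.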

How the values were obtained:
Assay in all cases: NCI anticancer screen, dose series, 48 h
IGROV1 ovarian = test system: IGROV1 ovarian
SF-268 CNS = test system: SF-268 CNS
PC-3 prostate = test system: PC-3 prostate
CAKI-1 renal = test system: CAKI-1 renal
NCI-H522 lung = test system: NCI-H522 lung
HT29 colon = test system: HT29 colon
K-562 leukemia = test system: K-562 leukemia
HS 578T breast = test system: HS 578T breast
SK-MEL-5 melanoma = test system: SK-MEL-5 melanoma
SK-MEL-28 melanoma = test system: SK-MEL-28 melanoma
LOX IMVI melanoma = test system: LOX IMVI melanoma
UACC-62 melanoma = test system: UACC-62 melanoma
SK-OV-3 ovarian = test system: SK-OV-3 ovarian
MDA-MB-231 breast = test system: MDA-MB-231 breast
OVCAR-8 ovarian = test system: OVCAR-8 ovarian
KM12 colon = test system: KM12 colon
786-0 renal = test system: 786-0 renal
HCT-15 colon = test system: HCT-15 colon
SN12C renal = test system: SN12C renal
SNB-75 CNS = test system: SNB-75 CNS
U251 CNS = test system: U251 CNS
SK-MEL-2 melanoma = test system: SK-MEL-2 melanoma
CCRF-CEM leukemia = test system: CCRF-CEM leukemia
NCI-H460 lung = test system: NCI-H460 lung
DU-145 prostate = test system: DU-145 prostate
SNB-19 CNS = test system: SNB-19 CNS
NCI-H226 lung = test system: NCI-H226 lung
OVCAR-3 ovarian = test system: OVCAR-3 ovarian
BT-549 breast = test system: BT-549 breast
NCI/ADR-RES ovarian = test system: NCI/ADR-RES ovarian
SF-295 CNS = test system: SF-295 CNS
SW-620 colon = test system: SW-620 colon
MDA-N = test system: MDA-N
MOLT-4 leukemia = test system: MOLT-4 leukemia
M14 melanoma = test system: M14 melanoma
HL-60(TB) leukemia = test system: HL-60(TB) leukemia
MCF7 breast = test system: MCF7 breast
RXF 393 renal = test system: RXF 393 renal
ACHN renal = test system: ACHN renal
HCT-116 colon = test system: HCT-116 colon
NCI-H23 lung = test system: NCI-H23 lung
MALME-3M melanoma = test system: MALME-3M melanoma
SF-539 CNS = test system: SF-539 CNS
HOP-62 NSCLC = test system: HOP-62 NSCLC
EKVX NSCLC = test system: EKVX NSCLC
TK-10 renal = test system: TK-10 renal
A498 renal = test system: A498 renal
T-47D breast = test system: T-47D breast
OVCAR-4 ovarian = test system: OVCAR-4 ovarian
OVCAR-5 ovarian = test system: OVCAR-5 ovarian
UACC-257 melanoma = test system: UACC-257 melanoma
HCC-2998 colon = test system: HCC-2998 colon
A549 NSCLC = test system: A549 NSCLC
COLO 205 colon = test system: COLO 205 colon
HOP-92 NSCLC = test system: HOP-92 NSCLC
UO-31 renal = test system: UO-31 renal

For Cc1ccc2c(=O)cc(-c3ccsc3)[nH]c2n1, the TGI (IGROV1 ovarian) was greater than 100 µM, the TGI (SF-268 CNS) was greater than 100 µM and the TGI (PC-3 prostate) was greater than 61.9 µM. The TGI (CAKI-1 renal) was greater than 100 µM, the TGI (NCI-H522 lung) was greater than 27.3 µM and the TGI (HT29 colon) was greater than 100 µM. The TGI (K-562 leukemia) was greater than 100 µM, the TGI (HS 578T breast) was 26.2 µM and the TGI (SK-MEL-5 melanoma) was greater than 28.5 µM. It also gave a TGI (SK-MEL-28 melanoma) greater than 100 µM, a TGI (LOX IMVI melanoma) greater than 56.6 µM and a TGI (UACC-62 melanoma) greater than 100 µM. The TGI (SK-OV-3 ovarian) was 72.6 µM, the TGI (MDA-MB-231 breast) was greater than 87.6 µM and the TGI (OVCAR-8 ovarian) was greater than 100 µM. For the same molecule, the TGI (KM12 colon) was greater than 100 µM, the TGI (786-0 renal) was greater than 100 µM and the TGI (HCT-15 colon) was greater than 62.9 µM. The TGI (SN12C renal) was greater than 86.2 µM, the TGI (SNB-75 CNS) was 35 µM and the TGI (U251 CNS) was greater than 55.2 µM. For the same molecule, the TGI (SK-MEL-2 melanoma) was greater than 30.6 µM, the TGI (CCRF-CEM leukemia) was greater than 83 µM and the TGI (NCI-H460 lung) was greater than 100 µM. For the same molecule, the TGI (DU-145 prostate) was greater than 89.8 µM, the TGI (SNB-19 CNS) was 86.7 µM and the TGI (NCI-H226 lung) was 56.8 µM. For the same molecule, the TGI (OVCAR-3 ovarian) was greater than 100 µM, the TGI (BT-549 breast) was greater than 100 µM and the TGI (NCI/ADR-RES ovarian) was greater than 20.5 µM. The TGI (SF-295 CNS) was 23.6 µM, the TGI (SW-620 colon) was greater than 21.1 µM and the TGI (MDA-N) was 2.09 µM. It also gave a TGI (MOLT-4 leukemia) greater than 30.7 µM, a TGI (M14 melanoma) greater than 58.1 µM and a TGI (HL-60(TB) leukemia) of 20.2 µM. The TGI (MCF7 breast) was greater than 100 µM, the TGI (RXF 393 renal) was greater than 31 µM and the TGI (ACHN renal) was greater than 100 µM. For the same molecule, the TGI (HCT-116 colon) was greater than 75.6 µM, the TGI (NCI-H23 lung) was greater than 25.2 µM and the TGI (MALME-3M melanoma) was greater than 100 µM. It also gave a TGI (SF-539 CNS) of 33.2 µM, a TGI (HOP-62 NSCLC) greater than 100 µM and a TGI (EKVX NSCLC) greater than 100 µM. The TGI (TK-10 renal) was greater than 100 µM, the TGI (A498 renal) was greater than 100 µM and the TGI (T-47D breast) was greater than 74.9 µM. For the same molecule, the TGI (OVCAR-4 ovarian) was greater than 100 µM, the TGI (OVCAR-5 ovarian) was greater than 100 µM and the TGI (UACC-257 melanoma) was greater than 100 µM. The TGI (HCC-2998 colon) was 42.9 µM, the TGI (A549 NSCLC) was greater than 44.7 µM and the TGI (COLO 205 colon) was 12.8 µM. It also gave a TGI (HOP-92 NSCLC) greater than 100 µM and a TGI (UO-31 renal) of 9.47 µM.
